We go through eight compounds from patent US11578055B2, “Triazacyclododecansulfonamide (“TCD”)-based protein secretion inhibitors” (KEZAR LIFE SCIENCES, priority 2018, dated 2023).

Data set [1] in a line: In Vitro Microsome Stability Assay (rat). It is filed as in vitro ADME. Particulars: rat, 30 min, NADPH. The gist of the method: (§1)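 Species liver microsomes in potassium phosphate buffer were preincubated at 37 °C for 3–5 min with test compound (added from 0.25 mM DMSO stock), then started with NADPH. Samples at 0 and 30 min were quenched with acetonitrile containing internal standard and analysed by LC-MS/MS; % remaining at 30 min used analyte/IS AUC ratios relative to t=0.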

Data set [2] deals with full length IL-2 (amino acids 1-153) fused to Gaussia Luciferase. Put plainly: Dox Induced IL2-FL-Gluc Assay. It is filed as cell-based. Particulars: 24 hr, 293FRT/TO; read-out: 24 hr Dox Inducible IL2FLGluc 293FRT/TO: Mean IC50. An outline of the steps:
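Compounds in DMSO/media with doxycycline were added to cells plated the previous day and incubated at 37° C, 5% CO2. Cells: stable Flp-In 293 T-REx line, Dox-regulated expression of IL-2 (aa 1-153) fused at its C-terminus to Gaussia luciferase.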

Data set [3] can be described thus: In Vitro Microsome Stability Assay (human). In kind it is in vitro ADME. Particulars: human, 30 min, NADPH. The gist of the method:
as §1

Data set [4] in a line: In Vitro Microsome Stability Assay (monkey). It is filed as in vitro ADME. The conditions noted are these: monkey, 30 min, NADPH. The gist of the method: as §1
In data set [5] the test system is multiple myeloma cell line NCl-H929. The experiment in a line: H929 Cell Viability Assay. It is filed as cell-based, human. The conditions noted are these: Homo sapiens, NCI-H929, 48 h, H929, read-out: 48 hr H929 Viability Celltiter-Glo: Mean EC50. The gist of the method: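 Viability was determined by CellTiter-Glo luminescence after a 48 h, 37 °C exposure of NCI-H929 cells to serial compound dilutions in medium containing 10% FBS. Where stereochemistry is not shown, values refer to a mix of stereoisomers.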

Data set [6] relates to PD1 signal sequence plus 10 amino acids fused to Gaussia Luciferase (PD1-ss+10aa/Gaussia Luciferase). The experiment in a line: Dox Induced PD1-ss-Gluc Assay. It is filed as cell-based. The conditions noted are these: 24 hr, 293FRT/TO; read-out: 24 hr Dox Inducible PD1ssGluc 293FRT/TO: Mean IC50. An outline of the steps: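 Compound dilutions in DMSO/media containing doxycycline were applied to a stable, inducible 293 T-REx line carrying the luciferase fusion, then incubated at 37 °C, 5% CO2. Where stereochemistry is not drawn, values relate to isomer mixtures.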

The subject of data set [7] is multiple myeloma cell line U266B1. Put plainly: U266 Cell Viability Assay. It is filed as cell-based, human. The conditions noted are these: Homo sapiens, U-266; 48 hr, U266; read-out: 48 hr U266 Viability Celltiter-Glo: Mean EC50. An outline of the steps: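 Viability was measured by CellTiter-Glo luminescence after 48 h compound exposure at 37° C, 5% CO2. The cells were U266B1 multiple myeloma cells grown in RPMI 1640 plus 10% FBS. Where stereochemistry is not shown, values apply to the stereoisomer mixture.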
(In general: In ATP-based viability assays light output follows the ATP content of the culture.)

Data set [8] relates to full length TNFα (amino acids 1-233) fused to Gaussia Luciferase. The experiment in a line: Dox Induced TNFα-FL-Gluc Assay. It is filed as cell-based. The conditions noted are these: 24 hr, 293FRT/TO; read-out: 24 hr Dox Inducible TNFaFLGluc 293FRT/TO: Mean IC50. An outline of the steps: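 Compounds diluted in DMSO/medium with doxycycline were incubated at 37° C, 5% CO2 with 293 T-REx cells stably carrying a Tet-regulated TNFα(1-233)-Gaussia luciferase construct. Data for structures drawn without stereochemistry refer to stereoisomer mixtures.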

For data set [9], the system named is full length PD1 (amino acids 1-288) fused to Firefly Luciferase. The experiment in a line: Dox Induced PD1-FL-Gluc Assay. In kind it is cell-based. The conditions noted are these: 24 hr, 293FRT/TO; read-out: 24 hr Dox Inducible PD1FLFluc 293FRT/TO: Mean IC50. The source says:
FIp-In 293 T-REx™ cells were transfected with pcDNA™5/FRT/TO plasmid inserted with cDNA encoding Firefly Luciferase fused to the 3′ end of cDNA encoding full length PD1 (amino acids 1-288). Transfected cells were selected for resistance to the selectable markers Hygromycin and Blasticidin to create a stable cell line that contained the PD1-FL/Firefly Luciferase cDNA insert whose expression was regulated under the T-REx™ system. The day before assay, cells were trypsinized and plated in 384-well tissue culture plates. The next day, compound dilutions in DMSO/media containing doxycycline were added to the wells and incubated at 37° C., 5% CO2.
For chemical structures that include one or more stereoisomers, but are illustrated without indicating stereochemistry, the assay data refers to a mixture of stereoisomers.

Data set [10] is described as follows: In Vitro Microsome Stability Assay (mouse). In kind it is in vitro ADME. Particulars: mouse, 30 min, NADPH. The gist of the method: as §1

Molecules are shown by their SMILES.

In general, EC50 refers to the concentration giving half of the maximal effect. As to `Cc1ccc(S(=O)(=O)N2CCCN(CC3CCCCC3)CCCN(S(=O)(=O)c3ccc(N(C)C)cc3)CCC2)cc1` [A14, 4-((5-(cyclohexylmethyl)-9-tosyl-1,5,9-triazacyclododecan-1-yl)sulfonyl)-N,N-dimethylaniline], the “Liver Microsome Stability-% Left after 30 min w/ NADPH (%) Rat” value (“Liver Microsome Stability-% Left … (%) Rat” below) in data set [1] worked out at 1.13%. For the same compound, the IC50 in data set [2] was 1160 nM; in data set [6], 640 nM; in [8], > 25000 nM; in data set [9] it was 1230 nM. Besides, the “Liver Microsome Stability-% Left after 30 min w/ NADPH (%) Human” value (“Liver Microsome Stability-% Left … (%) Human” for short) in [3] is listed as 0.08%. Further, the “Liver Microsome Stability-% Left after 30 min w/ NADPH (%) Monkey” value (“Liver Microsome Stability-% Left … (%) Monkey” below) in data set [4] was determined as 1.4%. Moreover, the EC50 in data set [5] and in [7] was > 25000 nM each time. Besides, the “Liver Microsome Stability-% Left after 30 min w/ NADPH (%) Mouse” value (“Liver Microsome Stability-% Left … (%) Mouse” below) in data set [10] was found to be 5.39%.
For the compound `CC1CCN(S(=O)(=O)N2CCCN(CC3CCCCC3)CCCN(S(=O)(=O)c3ccc(N(C)C)cc3)CC3(CC3)C2)CC1` [A22, 4-{[9-(cyclohexylmethyl)-13-[(4-methylpiperidin-1-yl)sulfonyl]-5,9,13-triazaspiro[2.11]tetradecan-5-yl]sulfonyl}-N,N-dimethylaniline], in data set [1], the “Liver Microsome Stability-% Left … (%) Rat” value came out at 0.4%. For the same compound, the IC50 in data set [2] stood at 370 nM; in data set [6], 156 nM; in data set [8] it was 6380 nM; in [9] it was 404 nM. The “Liver Microsome Stability-% Left … (%) Human” value in data set [3] is 0.16%. The “Liver Microsome Stability-% Left … (%) Monkey” value in [4] is reported as 0.11%. Moreover, the EC50 in data set [5] is 6670 nM; in data set [7] it was > 25000 nM. Also, in [10], the “Liver Microsome Stability-% Left … (%) Mouse” value is 0.12%.
For `CN(C)c1ccc(S(=O)(=O)N2CCCN(CC3CCCCC3)CCCN(S(=O)(=O)N3CCC(c4ccccc4)CC3)CC3(CC3)C2)cc1` [A29, 4-{[9-(cyclohexylmethyl)-13-[(4-phenylpiperidin-1-yl)sulfonyl]-5,9,13-triazaspiro[2.11]tetradecan-5-yl]sulfonyl}-N,N-dimethylaniline], the “Liver Microsome Stability-% Left … (%) Rat” value in data set [1] was 43.3%. For the same compound, the IC50 in data set [2] was 447 nM; in data set [6] it was 241 nM; in [8], > 25000 nM; in [9] it was 591 nM. Also, in [3], the “Liver Microsome Stability-% Left … (%) Human” value came to 39.6%. Besides, in data set [4], the “Liver Microsome Stability-% Left … (%) Monkey” value is given as 19.5%. For the same compound, the EC50 in data set [5] and in [7] was > 25000 nM each time. The “Liver Microsome Stability-% Left … (%) Mouse” value in [10] is 32.4%.
For `C=C1CN(S(=O)(=O)c2ccc(N(C)C)cc2)CCCN(CC2CCCCC2)CCCN(S(=O)(=O)N2CCN(c3ccccc3)CC2)C1` [A36, 4-{[9-(cyclohexylmethyl)-3-methylidene-5-[(4-phenylpiperazin-1-yl)sulfonyl]-1,5,9-triazacyclododecan-1-yl]sulfonyl}-N,N-dimethylaniline], the “Liver Microsome Stability-% Left … (%) Rat” value in data set [1] was determined as 0.94%. The IC50 is 301 nM in [2], 118 nM in data set [6], > 21800 nM in [8] and 319 nM in data set [9]. Moreover, the “Liver Microsome Stability-% Left … (%) Human” value in data set [3] is 6.69%. Further, in [4], the “Liver Microsome Stability-% Left … (%) Monkey” value amounted to 1.54%. In addition, the EC50 in data set [5] was > 15400 nM; in [7] it was > 25000 nM. Further, the “Liver Microsome Stability-% Left … (%) Mouse” value in [10] was found to be 1.85%.
On to `C=C1CN(S(=O)(=O)c2ccc(N(C)C)cc2)CCCN(CC2CCCCC2)CCCN(S(=O)(=O)N2CCC[C@@H](c3ccccc3)C2)C1` [A43, 4-{[9-(cyclohexylmethyl)-3-methylidene-5-{[(3S)-3-phenylpiperidin-1-y]sulfonyl}-1,5,9-triazacyclododecan-1-yl]sulfonyl}-N,N-dimethylaniline], for which the “Liver Microsome Stability-% Left … (%) Rat” value in data set [1] was found to be 22.3%. The IC50 in data set [2] turned out to be 133 nM; in data set [6] it was 46.9 nM; in [8], 1210 nM; in [9], 161 nM. For the same compound, in data set [3], the “Liver Microsome Stability-% Left … (%) Human” value turned out to be 15.4%. Also, the “Liver Microsome Stability-% Left … (%) Monkey” value in data set [4] was 12%. For the same compound, the EC50 was 2970 nM in [5] and > 25000 nM in data set [7]. In addition, in data set [10], the “Liver Microsome Stability-% Left … (%) Mouse” value stood at 20.1%.
For the compound `C=C1CN(S(=O)(=O)c2ccc(N(C)C)cc2)CCCN(CC2CCCCC2)CCCN(S(=O)(=O)N2CCc3ccccc3C2)C1` [A50, 4-{[9-(cyclohexylmethyl)-3-methylidene-5-(1,2,3,4-tetrahydroisoquinoline-2-sulfonyl)-1,5,9-triazacyclododecan-1-yl]sulfonyl}-N,N-dimethylaniline], the “Liver Microsome Stability-% Left … (%) Rat” value in [1] came to 3.6%. In addition, the IC50 stood at 57 nM in data set [2], 22.2 nM in data set [6], 661 nM in data set [8] and 74.1 nM in data set [9]. Also, in [3], the “Liver Microsome Stability-% Left … (%) Human” value came out at 1.32%. The “Liver Microsome Stability-% Left … (%) Monkey” value in [4] turned out to be 0.79%. In addition, the results for the EC50 in data set [5] and in data set [7] were 1010 nM and 6540 nM, respectively. For the same compound, in [10], the “Liver Microsome Stability-% Left … (%) Mouse” value is recorded as 70.1%.
As to `C=C1CN(S(=O)(=O)c2ccc(N(C)C)cc2)CCCN(CC2CCCCC2)CCCN(S(=O)(=O)N2CC=C(c3ccc(Cl)cc3)CC2)C1` [A74, 4-[(5-{[4-(4-chlorophenyl)-1,2,3,6-tetrahydropyridin-1-yl]sulfonyl}-9-(cyclohexylmethyl)-3-methylidene-1,5,9-triazacyclododecan-1-yl)sulfonyl]-N,N-dimethylaniline], the “Liver Microsome Stability-% Left … (%) Rat” value in [1] came out at 55.7%. The IC50 in [2] is 248 nM; in data set [6], 77.4 nM; in data set [8], > 25000 nM; in [9], 258 nM. Further, in data set [3], the “Liver Microsome Stability-% Left … (%) Human” value stood at 56.3%. For the same compound, the “Liver Microsome Stability-% Left … (%) Monkey” value in data set [4] was 60.6%. Also, the EC50 in data set [5] and in data set [7] was > 25000 nM each time. For the same compound, the “Liver Microsome Stability-% Left … (%) Mouse” value in data set [10] is recorded as 53.7%.
As for `CN(C)c1ccc(S(=O)(=O)N2CCCN(CC3CCCCC3)CCCN(S(=O)(=O)N3CCC(c4ccccc4)CC3)C/C(=N/O)C2)cc1` [A75, 9-(cyclohexylmethyl)-1-((4-(dimethylamino)phenyl)sulfonyl)-5-((4-phenylpiperidin-1-yl)sulfonyl)-1,5,9-triazacyclododecan-3-one oxime], in data set [1], the “Liver Microsome Stability-% Left … (%) Rat” value turned out to be 7.54%. In addition, the IC50 in data set [2] was determined as 233 nM; in [6], 104 nM; in data set [8], 3780 nM; in data set [9] it was 256 nM. The “Liver Microsome Stability-% Left … (%) Human” value in [3] is 3.08%. Moreover, the “Liver Microsome Stability-% Left … (%) Monkey” value in data set [4] is 0.28%. In addition, the EC50 in [5] was 3030 nM; in [7], > 25000 nM. Moreover, the “Liver Microsome Stability-% Left … (%) Mouse” value in data set [10] is recorded as 2.75%.
